Molecular target: Dual specificity tyrosine-phosphorylation-regulated kinase 1A (Homo sapiens, UniProt Q13627)
Assay: Inhibition of human recombinant DYRK1A

| IC50 | Compound |
| --- | --- |
| > 100 µM | COC(=O)[C@@]1(Cc2ccc(O)c(CC=C(C)C)c2)OC(=O)C(=O)C1c1ccc(O)cc1 (stereo partly drawn) [(S)-methyl 4-hydroxy-2-(4-hydroxy-3-(3-methylbut-2-enyl)benzyl)-3-(4-hydroxyphenyl)-5-oxo-2,5-dihydrofuran-2-carboxylate] |
| > 100 µM | COC(=O)[C@]1(Cc2ccc(OS(=O)(=O)O)c(CC=C(C)C)c2)OC(=O)C(=O)C1c1ccc(O)cc1 (some centres not stated) [butyrolactone I 4''-sulfate] |

Source: BindingDB's records for doi:10.1021/np070341r (Leibniz-Institute For Natural Product Research and …, 2008)
